Among the data in ChEMBL document CHEMBL3120129, “Enantiomeric atropisomers inhibit HCV polymerase and/or HIV matrix: characterizing hindered bond rotations and target selectivity” (J Med Chem, 2014) are IC50, half-life and EC50 values, retold here.

The nature of data set [1]: Inhibition of HCV genotype 1b hexa-histidine-tagged NS5B polymerase expressed in baculovirus infected cell system. Also noted: species or system Hepatitis C virus subtype 1b.
The nature of data set [2]: Inhibition of HIV1 NL-4.3 matrix (1 to 132) expressed in BL21(DE3) cells using [PI(4,5)P2]2 as substrate after 30 mins by fluorescence polarization assay. Also noted: species or system Human immunodeficiency virus 1. Background: In fluorescence polarisation assays a small probe gives low polarisation when free and higher when bound to something large.
A short description of data set [3]: Apparent half life of the compound assessed as atropisomer interconversion by HPLC analysis. The class given is physicochemical. Particulars: read-out: t1/2(app).
Another data set has as its system Hepatitis C virus. Briefly: Antiviral activity against HCV genotype 1b by HCV replicon assay. Format: functional, organism-based, Hepacivirus hominis. (In general: A replicon is a self-replicating genome or part of one, used to study replication in cells.)
The subject of data set [4] is Human immunodeficiency virus 1. The data set can be described thus: Antiviral activity against HIV1 NL-4.3. The class given is functional, organism-based. The conditions noted are these: Human immunodeficiency virus 1, NL-4.3.

Where only a bound is given, the exact number is not on record here.

As usually defined, the IC50 is the concentration that inhibits the measured activity by half. Lower therefore signals inhibition by little substance. For `CC(C)N(c1ccc(Oc2ccccc2C(F)(F)F)cc1C(=O)O)C(=O)[C@H]1CC[C@H](C)CC1`, the IC50 in data set [1] is 190 nM; in data set [2], above 175000 nM.

In data set [1], `CC(C)N(c1cc(F)c(Oc2ncc(CCn3nccn3)cc2C(F)(F)F)cc1C(=O)O)C(=O)[C@H]1CC[C@H](C)CC1` gave an IC50 of 68 nM. Same read-out and setting: with `COC[C@H](C)N(c1cc(F)c(Oc2ncc(CCn3nccn3)cc2C(F)(F)F)cc1C(=O)O)C(=O)[C@H]1CC[C@H](C)CC1` the figure was 68 nM.

With `COC[C@H](C)N(c1ccc(Oc2ncc(CCn3nccn3)cc2C(F)(F)F)c(F)c1)C(=O)[C@H]1CC[C@H](C)CC1`, in data set [1], the IC50 came to 56000 nM. For `Cc1cc(OCc2cnc(Oc3ccc(N(C(=O)[C@H]4CC[C@H](C)CC4)C(C)C)c(C(=O)O)c3)c(C(F)(F)F)c2)c2ccccc2n1`, in data set [3], the half-life was found to be 1.15 h. With `C[C@H]1CC[C@H](C(=O)Nc2ccc(Oc3ccccc3C(F)(F)F)cc2C(=O)O)CC1`, the values for the IC50 in data set [1] and in data set [2] were 15000 nM and above 95000 nM, respectively. One may read the EC50 as the concentration needed to bring the measured effect to its halfway point. Higher therefore signals lower potency in that assay. Molecule `CN(c1ccc(Oc2ccccc2C(F)(F)F)cc1C(=O)O)C(=O)[C@H]1CC[C@H](C)CC1` registered an EC50 in the data set on Hepatitis C virus of 1100 nM. The IC50 in data set [1] is 200 nM; in data set [2] it was above 100000 nM. As for `COc1ccc(C(=O)Nc2ccc(Oc3ccc(N(C(=O)[C@H]4CC[C@H](C)CC4)C(C)C)c(C(=O)O)c3)cc2)cc1`, the EC50 was determined as 950 nM with Hepatitis C virus and 2800 nM in data set [4]. Besides, the values for the concentration for half-maximal inhibition (IC50) in data set [1] and in data set [2] were 630 nM and 3400 nM, respectively.
